Patent US6410054B1, “Immediate release eplerenone compositions” (G. D. Searle & Co., priority 1998, dated 2002)
Like-named read-outs stand apart in the source and are kept apart here.

Columns and labels:
Type in all cases: in vivo, humans
[1] = Effect of food study: plasma pharmacokinetics fasted vs high-fat breakfast; details: for effect of high-fat meal on AUC0-96 / effect of high-fat meal on Cmax / effect of high-fat meal on Tmax / effect of high-fat meal on T½: 100 mg capsule, fed vs fasted; for Plasma Concentration / concentration at 0.5 h / concentration at 1 h / concentration at 2 h / concentration at 3 h / concentration at 4 h / concentration at 6 h / concentration at 8 h / concentration at 28 h / concentration at 48 h / concentration at 72 h / concentration at 12 h / concentration at 16 h / concentration at 24 h / concentration at 32 h / concentration at -0.5 h: 100 mg eplerenone capsule; for concentration at 0.5 h / concentration at 1 h / concentration at 2 h / concentration at 3 h / concentration at 4 h / concentration at 6 h / concentration at 8 h / concentration at 28 h / concentration at 48 h / concentration at 72 h / concentration at 12 h / concentration at 16 h / concentration at 24 h / concentration at 32 h / concentration at -0.5 h: male, human, plasma, oral, 100 mg; for concentration at 12 h / concentration at 16 h / concentration at 24 h / concentration at 32 h: […] after dosing
Experimental: (§1) An open-label randomized, cross-over study was employed to evaluate the pharmacokinetic profiles of eplerenone under fasted and fed conditions, and the safety and tolerability of eplerenone. Safety was assessed based on adverse events, vital signs and clinical laboratory tests. Twelve healthy male subjects were randomized to receive a single 100 mg dose of eplerenone on days 1 and 8 under (i) fasted conditions, or (ii) immediately following a high-fat breakfast. The subjects were orally administered (dosed) a single 100 mg dose of eplerenone in the form of the capsule described in Example 7, together with approximately 200 to 240 mL of water at 0800 hours on days 1 and 8. Subjects randomized to receive a high-fat breakfast were to completely ingest the meal within 20 minutes prior to dosing. The high-fat meal contained approximately 33 g protein, 75 g fat, 58 g carbohydrates and 1000 calories. […] All adverse events were mild in severity.

[2] = Multiple dose study: plasma pharmacokinetics and urinary excretion; details: for dose proportionality of plasma concentrations and dose-adjusted AUC: 100 mg to 1000 mg, single or multiple doses; for accumulation: once a day for 11 days; for AUC / Cmax / Tmax / half-life: male, human, plasma, oral; for half-life: read-out: T½ (converted)
Experimental: Multiple oral dose tolerability and the pharmacokinetics of several dosages of eplerenone were evaluated in a double-blind, randomized, placebo-controlled, rising oral dose, sequential panel study of 40 healthy male subjects (five groups of eight subjects). The study medication was administered in […] sequential dose panels, with each panel including eplerenone, spironolactone and placebo. […] The 100 mg and 200 mg dose capsules corresponded to those described in Examples 7 and 8, respectively. Following a 48-hour interval, the study drug was administered once a day for 11 days. Antialdosterone activity was determined following a fludrocortisone challenge on Days 12-13.

[3] = Effect of food study: safety and tolerability; details: single 100 mg dose, fasted or fed
Experimental: as §1

[4] = Fasted Conditions, 0.5 hours after dosing
[5] = Fasted Conditions, 1.0 hours after dosing
[6] = Fasted Conditions, 2.0 hours after dosing
[7] = Fasted Conditions, 3.0 hours after dosing
[8] = Fasted Conditions, 4.0 hours after dosing
[9] = Fasted Conditions, 6.0 hours after dosing
[10] = Fasted Conditions, 8.0 hours after dosing
[11] = Fasted Conditions, 28.0 hours after dosing
[12] = Fasted Conditions, 48.0 hours after dosing
[13] = Fasted Conditions, 72.0 hours after dosing
[14] = Fasted Conditions, −0.5 hours after dosing
[15] = High Fat Breakfast, 0.5 hours after dosing
[16] = High Fat Breakfast, 1.0 hours after dosing
[17] = High Fat Breakfast, 2.0 hours after dosing
[18] = High Fat Breakfast, 3.0 hours after dosing
[19] = High Fat Breakfast, 4.0 hours after dosing
[20] = High Fat Breakfast, 6.0 hours after dosing
[21] = High Fat Breakfast, 8.0 hours after dosing
[22] = High Fat Breakfast, 28.0 hours after dosing
[23] = High Fat Breakfast, 48.0 hours after dosing
[24] = High Fat Breakfast, 72.0 hours after dosing
[25] = High Fat Breakfast, −0.5 hours after dosing
[26] = 100 mg, eplerenone 100 mg Dose, Multiple Dose
[27] = 100 mg, eplerenone 100 mg Dose, Single Dose
[28] = 300 mg, eplerenone 300 mg Dose, Multiple Dose
[29] = 300 mg, eplerenone 300 mg Dose, Single Dose
[30] = 1000 mg, eplerenone 1000 mg Dose, Multiple Dose
[31] = 1000 mg, eplerenone 1000 mg Dose, Single Dose

For `COC(=O)C1CC2=CC(=O)CCC2(C)C23OC2CC2(C)C(CCC2(O)CCC(=O)O)C13` (stereo not shown) [Open Ring Lactone], the “effect of high-fat meal on AUC0-96” value [1] was “minimal or no measurable effect”, the “effect of high-fat meal on Cmax” value [1] was “reduction” and the “effect of high-fat meal on Tmax” value [1] was “increase”. The “effect of high-fat meal on T½” value [1] was “minimal or no measurable effect”, the “Plasma Concentration” value [1, 4] was 69.163 ng/mL and the “Plasma Concentration” value [1, 5] was 91.208 ng/mL. For the same compound, the “Plasma Concentration” value [1, 6] was 70.600 ng/mL, the “Plasma Concentration” value [1, 7] was 58.833 ng/mL and the “Plasma Concentration” value [1, 8] was 45.042 ng/mL. For the same compound, the “Plasma Concentration” value [1, 9] was 31.773 ng/mL, the “Plasma Concentration” value [1, 10] was 18.708 ng/mL and the “Plasma Concentration” value [1, 11] was 0 ng/mL. The “Plasma Concentration” value [1, 12] was 0 ng/mL, the “Plasma Concentration” value [1, 13] was 0 ng/mL and the “Plasma Concentration” value [1, 14] was 0 ng/mL. For the same compound, the “Plasma Concentration” value [1, 15] was 2.300 ng/mL, the “Plasma Concentration” value [1, 16] was 17.392 ng/mL and the “Plasma Concentration” value [1, 17] was 36.964 ng/mL. For the same compound, the “Plasma Concentration” value [1, 18] was 56.742 ng/mL, the “Plasma Concentration” value [1, 19] was 66.817 ng/mL and the “Plasma Concentration” value [1, 20] was 51.675 ng/mL. The “Plasma Concentration” value [1, 21] was 30.950 ng/mL, the “Plasma Concentration” value [1, 22] was 0 ng/mL and the “Plasma Concentration” value [1, 23] was 0 ng/mL. The “Plasma Concentration” value [1, 24] was 0 ng/mL, the “Plasma Concentration” value [1, 25] was 0 ng/mL and the “dose proportionality of plasma concentrations and dose-adjusted AUC” value [2] was “consistent with dose proportionality”. For the same compound, the accumulation [2] was “no significant or dose-related accumulation”.

With `COC(=O)C1CC2=CC(=O)CCC2(C)C23OC2CC2(C)C(CC[C@@]24CCC(=O)O4)C13` (stereo partly drawn) [eplerenone, methyl hydrogen 9,11α-epoxy-17α-hydroxy-3-oxopregn-4-ene-7α,21-dicarboxylate, γ-lactone] the “effect of high-fat meal on AUC0-96” value [1] was “minimal or no measurable effect”, the “effect of high-fat meal on Cmax” value [1] was “reduction” and the “effect of high-fat meal on Tmax” value [1] was “increase”. For the same compound, the “effect of high-fat meal on T½” value [1] was “minimal or no measurable effect”, the concentration at 0.5 h [1, 4] was 1010 ng/mL and the concentration at 1 h [1, 5] was 1560 ng/mL. The concentration at 2 h [1, 6] was 1390 ng/mL, the concentration at 3 h [1, 7] was 1170 ng/mL and the concentration at 4 h [1, 8] was 955 ng/mL. It also gave a concentration at 6 h [1, 9] of 587 ng/mL, a concentration at 8 h [1, 10] of 388 ng/mL and a concentration at 28 h [1, 11] of 7.62 ng/mL. The concentration at 48 h [1, 12] was 0 ng/mL, the concentration at 72 h [1, 13] was 0 ng/mL and the concentration at 12 h ([1]; Fasted Conditions) was 151 ng/mL. It also gave a concentration at 16 h ([1]; Fasted Conditions) of 68.8 ng/mL, a concentration at 24 h ([1]; Fasted Conditions) of 17.7 ng/mL and a concentration at 32 h ([1]; Fasted Conditions) of 3.28 ng/mL. For the same compound, the concentration at -0.5 h [1, 14] was 0 ng/mL, the concentration at 0.5 h [1, 15] was 71.2 ng/mL and the concentration at 1 h [1, 16] was 366 ng/mL. The concentration at 2 h [1, 17] was 712 ng/mL, the concentration at 3 h [1, 18] was 1040 ng/mL and the concentration at 4 h [1, 19] was 1240 ng/mL. For the same compound, the concentration at 6 h [1, 20] was 946 ng/mL, the concentration at 8 h [1, 21] was 673 ng/mL and the concentration at 28 h [1, 22] was 21.7 ng/mL. The concentration at 48 h [1, 23] was 1.91 ng/mL, the concentration at 72 h [1, 24] was 0 ng/mL and the concentration at 12 h ([1]; High Fat Breakfast) was 282 ng/mL. The concentration at 16 h ([1]; High Fat Breakfast) was 130 ng/mL, the concentration at 24 h ([1]; High Fat Breakfast) was 39 ng/mL and the concentration at 32 h ([1]; High Fat Breakfast) was 7.51 ng/mL. For the same compound, the concentration at -0.5 h [1, 25] was 0 ng/mL, the “changes in vital signs or physical examinations” value [3] was “no clinically significant changes” and the “severity of adverse events” value [3] was “mild”. The “dose proportionality of plasma concentrations and dose-adjusted AUC” value [2] was “lack of dose proportionality”, the “plasma concentrations at 24 hours postdose” value ([2]; all dosing groups (100, 300, 1000 mg)) was “detectable” and the AUC [2, 26] was 11800 ng·h/mL. For the same compound, the Cmax [2, 26] was 1900 ng/mL, the Tmax [2, 26] was 1.1 h and the half-life [2, 26] was 4 h. For the same compound, the AUC [2, 27] was 11300 ng·h/mL, the Cmax [2, 27] was 1750 ng/mL and the Tmax [2, 27] was 1.8 h. It also gave a half-life [2, 27] of 3.9 h, an AUC [2, 28] of 26500 ng·h/mL and a Cmax [2, 28] of 3580 ng/mL. The Tmax [2, 28] was 1.8 h, the half-life [2, 28] was 4.6 h and the AUC [2, 29] was 23900 ng·h/mL. The Cmax [2, 29] was 3230 ng/mL, the Tmax [2, 29] was 2.4 h and the half-life [2, 29] was 4.6 h. For the same compound, the AUC [2, 30] was 63200 ng·h/mL, the Cmax [2, 30] was 7390 ng/mL and the Tmax [2, 30] was 1.4 h. The half-life [2, 30] was 6.2 h, the AUC [2, 31] was 62100 ng·h/mL and the Cmax [2, 31] was 6880 ng/mL. The Tmax [2, 31] was 2 h, the half-life [2, 31] was 8.7 h and the accumulation [2] was “no significant or dose-related accumulation”.
